Reference: the NIST ThermoML archive (doi:10.1016/j.tca.2010.04.025)
Several values for one entry are separate records, joined by “and”; a condition that tells them apart may be missing. Equal values may be shown once. ± gives the expanded uncertainty stated by the source.

Experiments:
[1] = xn = mol fraction of the nth substance listed; conditions: 101 kPa, Liquid; for speed of sound: Linear variable-path acoustic interferometer; for mass density: Pycnometric method
[2] = 101 kPa, Liquid; for speed of sound: Linear variable-path acoustic interferometer; for mass density: Pycnometric method

CNc1ccccc1 [N-methylaniline] + C1CCOC1
[1]
Conditions | mass density, 303.15 K [kg/m3] | mass density, 313.15 K [kg/m3] | mass density, 323.15 K [kg/m3] | speed of sound, 303.15 K [m/s] | speed of sound, 313.15 K [m/s] | speed of sound, 323.15 K [m/s]
x2 = 0 | 978.2 ± 0.3 | 969.8 ± 0.4 | 961 ± 0.4 | 1548 ± 3 | 1512 ± 3 | 1477 ± 3
x2 = 0.0831 | 973.1 ± 0.3 | 964.9 ± 0.4 | 956.6 ± 0.4 | 1528 ± 3 | 1493 ± 3 | 1459 ± 3
x2 = 0.1864 | 966 ± 0.3 | 958.3 ± 0.4 | 949.9 ± 0.4 | 1502 ± 3 | 1466 ± 3 | 1433 ± 3
x2 = 0.2813 | 959.1 ± 0.3 | 951.4 ± 0.4 | 943.4 ± 0.4 | 1478 ± 3 | 1442 ± 3 | 1407 ± 3
x2 = 0.3782 | 951.5 ± 0.3 | 944 ± 0.4 | 935.8 ± 0.4 | 1453 ± 3 | 1416 ± 3 | 1381 ± 3
x2 = 0.4714 | 943.5 ± 0.3 | 936 ± 0.4 | 927.4 ± 0.4 | 1428 ± 3 | 1390 ± 3 | 1354 ± 3
x2 = 0.5746 | 933.2 ± 0.3 | 926 ± 0.3 | 916.9 ± 0.4 | 1396 ± 3 | 1358 ± 3 | 1322 ± 3
x2 = 0.6956 | 919.4 ± 0.3 | 912.2 ± 0.3 | 902.6 ± 0.4 | 1357 ± 3 | 1318 ± 2 | 1282 ± 2
x2 = 0.7823 | 908.2 ± 0.3 | 900.8 ± 0.3 | 891.1 ± 0.4 | 1329 ± 3 | 1289 ± 2 | 1252 ± 2
x2 = 0.8882 | 893.4 ± 0.3 | 885.7 ± 0.3 | 875.8 ± 0.4 | 1293 ± 2 | 1252 ± 2 | 1213 ± 2

CCNc1ccccc1 [N-ethylaminobenzene]
[2]
Conditions | mass density [kg/m3] | speed of sound [m/s]
303.15 K | 951.9 ± 0.3 | 1497 ± 3
313.15 K | 944.3 ± 0.4 | 1462 ± 3
323.15 K | 935.9 ± 0.4 | 1431 ± 3

CNc1ccccc1 [N-methylaniline]
[2]
Conditions | mass density [kg/m3] | speed of sound [m/s]
303.15 K | 978.2 ± 0.3 | 1548 ± 3
313.15 K | 969.8 ± 0.4 | 1512 ± 3
323.15 K | 961 ± 0.4 | 1477 ± 3

C1CCOC1 [tetrahydrofuran] + CCNc1ccccc1
[1], x1 = 1
Conditions | mass density [kg/m3] | speed of sound [m/s]
303.15 K | 877.3 ± 0.3 | 1256 ± 2
313.15 K | 867.2 ± 0.3 | 1212 ± 2
323.15 K | 857.1 ± 0.3 | 1171 ± 2

C1CCOC1 [tetrahydrofuran] + Nc1ccccc1
[1], x1 = 1
Conditions | mass density [kg/m3] | speed of sound [m/s]
303.15 K | 877.3 ± 0.3 | 1256 ± 2
313.15 K | 867.2 ± 0.3 | 1212 ± 2
323.15 K | 856.6 ± 0.3 | 1171 ± 2

Nc1ccccc1 [aniline]
[2]
Conditions | mass density [kg/m3] | speed of sound [m/s]
303.15 K | 1012.8 ± 0.4 | 1615 ± 3
313.15 K | 1004.9 ± 0.4 | 1583 ± 3
323.15 K | 998.4 ± 0.4 | 1558 ± 3

Nc1ccccc1 [aniline] + C1CCOC1
[1]
Conditions | mass density, 303.15 K [kg/m3] | mass density, 313.15 K [kg/m3] | mass density, 323.15 K [kg/m3] | speed of sound, 303.15 K [m/s] | speed of sound, 313.15 K [m/s] | speed of sound, 323.15 K [m/s]
x2 = 0 | 1012.8 ± 0.4 | 1004.9 ± 0.4 | 998.4 ± 0.4 | 1615 ± 3 | 1583 ± 3 | 1558 ± 3
x2 = 0.087 | 1004.4 ± 0.4 | 997.5 ± 0.4 | 991.5 ± 0.4 | 1592 ± 3 | 1561 ± 3 | 1537 ± 3
x2 = 0.1803 | 994.8 ± 0.3 | 988.2 ± 0.4 | 981.6 ± 0.4 | 1565 ± 3 | 1531 ± 3 | 1510 ± 3
x2 = 0.2735 | 984.8 ± 0.3 | 978.5 ± 0.4 | 971.8 ± 0.4 | 1535 ± 3 | 1500 ± 3 | 1478 ± 3
x2 = 0.3573 | 975.4 ± 0.3 | 969.4 ± 0.4 | 962.4 ± 0.4 | 1509 ± 3 | 1473 ± 3 | 1450 ± 3
x2 = 0.4556 | 964.1 ± 0.3 | 957.8 ± 0.4 | 951.6 ± 0.4 | 1476 ± 3 | 1440 ± 3 | 1417 ± 3
x2 = 0.5638 | 950.5 ± 0.3 | 943.9 ± 0.4 | 937.9 ± 0.4 | 1438 ± 3 | 1402 ± 3 | 1379 ± 3
x2 = 0.6708 | 935 ± 0.3 | 928.7 ± 0.3 | 922.6 ± 0.4 | 1393 ± 3 | 1359 ± 3 | 1334 ± 3
x2 = 0.8169 | 910.1 ± 0.3 | 904 ± 0.3 | 898.5 ± 0.4 | 1334 ± 3 | 1299 ± 2 | 1268 ± 2
x2 = 0.8812 | 898.7 ± 0.3 | 892.2 ± 0.3 | 885 ± 0.4 | 1306 ± 2 | 1267 ± 2 | 1237 ± 2

CCNc1ccccc1 [N-ethylaminobenzene] + C1CCOC1
[1]
Conditions | mass density, 303.15 K [kg/m3] | mass density, 313.15 K [kg/m3] | mass density, 323.15 K [kg/m3] | speed of sound, 303.15 K [m/s] | speed of sound, 313.15 K [m/s] | speed of sound, 323.15 K [m/s]
x2 = 0 | 951.9 ± 0.3 | 944.3 ± 0.4 | 935.9 ± 0.4 | 1497 ± 3 | 1462 ± 3 | 1431 ± 3
x2 = 0.0904 | 947.8 ± 0.3 | 940.8 ± 0.3 | 932.8 ± 0.4 | 1482 ± 3 | 1450 ± 3 | 1420 ± 3
x2 = 0.1892 | 943.8 ± 0.3 | 936.7 ± 0.3 | 929.1 ± 0.4 | 1469 ± 3 | 1435 ± 3 | 1404 ± 3
x2 = 0.2849 | 939.5 ± 0.3 | 932.4 ± 0.3 | 925.2 ± 0.4 | 1452 ± 3 | 1418 ± 3 | 1388 ± 3
x2 = 0.3819 | 934.5 ± 0.3 | 927.6 ± 0.3 | 920.6 ± 0.4 | 1433 ± 3 | 1399 ± 3 | 1367 ± 3
x2 = 0.4674 | 929.3 ± 0.3 | 922.6 ± 0.3 | 915.7 ± 0.4 | 1414 ± 3 | 1379 ± 3 | 1346 ± 3
x2 = 0.5758 | 921.9 ± 0.3 | 915.2 ± 0.3 | 908.1 ± 0.4 | 1387 ± 3 | 1351 ± 3 | 1317 ± 2
x2 = 0.6778 | 913.1 ± 0.3 | 906.4 ± 0.3 | 899.5 ± 0.4 | 1360 ± 3 | 1323 ± 2 | 1286 ± 2
x2 = 0.7876 | 902.1 ± 0.3 | 895.4 ± 0.3 | 887.7 ± 0.4 | 1326 ± 2 | 1287 ± 2 | 1250 ± 2
x2 = 0.8903 | 890.8 ± 0.3 | 882.8 ± 0.3 | 874.2 ± 0.3 | 1291 ± 2 | 1251 ± 2 | 1215 ± 2

C1CCOC1 [tetrahydrofuran]
[2]
Conditions | mass density | speed of sound [m/s]
303.15 K | 877.3 ± 0.3 kg/m3 | 1256 ± 2
313.15 K | 867.2 ± 0.3 kg/m3 | 1212 ± 2
323.15 K | 856.6 ± 0.3 kg/m3 and 857.1 ± 0.3 kg/m3 | 1171 ± 2

C1CCOC1 [tetrahydrofuran] + CNc1ccccc1
[1], x1 = 1
Conditions | mass density [kg/m3] | speed of sound [m/s]
303.15 K | 877.3 ± 0.3 | 1256 ± 2
313.15 K | 867.2 ± 0.3 | 1212 ± 2
323.15 K | 856.6 ± 0.3 | 1171 ± 2
